{"source": "patent US10905781B2", "about": "“Reporter platform for real time monitoring of drug efficacy” (THE BRIGHAM AND WOMEN'S HOSPITAL, INC., priority 2016, dated 2021)", "test_system": "effector caspases (caspase-3 and caspase-7) compared with initiator caspases (caspase-6 and caspase-9)", "test": "Activation of the NIR FRET reporter element by caspases", "format": "biochemical", "conditions": "caspase-3 and caspase-7 compared with caspase-6 and caspase-9", "experimental": "FIG. 15A is a graph showing the time-dependent activation of the reporter element (with the NIR FRET pair) in the presence of caspase-3. Reporter element (50 μM) was incubated in the presence of 50 U caspase-3 enzyme at 37° C., which results in the cleavage of the DEVD sequence and removing the quenching effect of Dylight 766Q on the fluorophore Dylight 755. The increase in fluorescence over time was monitored.", "note": "Ends that are not written are not given here.", "data": [{"substance": "reporter element: caspase-3 cleavable sequence GKDEVDAPC-CONH2 to which a NIR FRET-pair (Dylight 755 / Dylight 766Q) is conjugated (GKDEVDAPC-NH2; also: Dylight 755 / Dylight 766Q FRET pair conjugated)", "values": [{"measurement": "activation of the NIR-based fluorophore by effector versus initiator caspases", "value": "selective activation"}]}]}
